The values below are quoted from earlier work in patent publication US20060128805A1, “Methods of treating erythropoietin-resistance” (priority 2004, published 2006).

Molecules are shown by their SMILES.

The conditions of the series: within the first hour of oral administration.

Consider `Cc1c(O)c(=O)ccn1C` [deferiprone, 1,2-dimethyl-3-hydroxy-pyrid-4-one], for which the “mean increase in plasma aluminum” value is reported as “about 90%”.
